Laboratory results as given in patent publication US8048825B2, “Haloalkylsulfonanilide derivatives or salt thereof, herbicide comprising the derivatives as active ingredient, and use of the herbicide” (Nihon Nohyaku Co., Ltd., priority 2006, dated 2011).

What was measured:
Assay type in all cases: in vivo
Scirpus juncoides [1] = assay: Herbicidal efficacy on paddy field weeds of pre-emergence stage (Pre), Test Example 1; details: 1000 g/ha as active ingredient, examined after 21 days
Protocol: (§1) 75 cm^2 plastic pots were filled with the soil (clay loam). Seeds of Scirpus juncoides, a paddy weed, were planted, and they were covered with 75 cm^3 of soil mixed with seeds of Lindernia procumbens and then filled with water depth of 5 cm. Next day, predetermined effective dosage (1000 g/ha as an active ingredient) of formulations comprising a compound of the present invention as an active ingredient which were prepared following Formulation Examples 1 to 4 was diluted with water and applied dropwise to the surface of the water. Then, they were brought up in a greenhouse and the herbicidal effect was examined after 21 days from the treatment by comparing with the result of an untreated group according to the following criteria. In the table, “-” means that the test was not performed.
(§2) Criteria for herbicidal efficacy (growth inhibiting degree) and phytotoxicity. • 5 . . . 100% herbicidal effect, phytotoxicity. • 4 . . . 90%-99% herbicidal effect, phytotoxicity. • 3 . . . 70%-89% herbicidal effect, phytotoxicity. • 2 . . . 40%-69% herbicidal effect, phytotoxicity. • 1 . . . 1%-39% herbicidal effect, phytotoxicity. • 0 . . . 0% herbicidal effect, phytotoxicity.

Lindernia procumbens [2] = assay: as above; details: 1000 g/ha as active ingredient, examined after 21 days
Protocol: as §1, §2

Scirpus juncoides [3] = assay: Herbicidal effect on paddy field weeds of post-emergence stage (Post), Test Example 2; details: one-leaf stage, 1000 g/ha as active ingredient, examined after 21 days
Text: as §2
(§3) 75 cm^2 plastic pots were filled with the soil (clay loam). Seeds of Scirpus juncoides and Echinochloa crus-galli, paddy weeds, were planted, and they were covered with 75 cm^3 of soil mixed with seeds of Lindernia procumbens and then filled with water depth of 5 cm and they were brought up in a greenhouse. When the test plants were at one-leaf stage, predetermined effective dosage (1000 g/ha as an active ingredient) of formulations comprising a compound of the present invention as an active ingredient was applied to the pot water. Then, they were brought up in a greenhouse and the herbicidal efficacy was examined after 21 days from the treatment by comparing with the result of an untreated group according to the criteria of Test Example 1. In the table, “-” means that the test was not performed.

Lindernia procumbens [4] = assay: as above; details: one-leaf stage, 1000 g/ha as active ingredient, examined after 21 days
Text: as §2, §3

| Compound | Scirpus juncoides pre (herbicidal effect) (Scirpus juncoides [1]) | Lindernia procumbens pre (herbicidal effect) (Lindernia procumbens [2]) | Scirpus juncoides post (herbicidal effect) (Scirpus juncoides [3]) | Lindernia procumbens post (herbicidal effect) (Lindernia procumbens [4]) |
| --- | --- | --- | --- | --- |
| CCC1(CC(C)C)CCN(Cc2ccccc2N(C(=O)OCC(C)(C)C)S(=O)(=O)C(F)(F)F)C(=O)O1 (racemic) [Compound 1-423] | 4 (90%-99% herbicidal effect, phytotoxicity) | 5 (100% herbicidal effect, phytotoxicity) | 4 (90%-99% herbicidal effect, phytotoxicity) | 5 (100% herbicidal effect, phytotoxicity) |
| CC1(c2ccccc2F)CCN(Cc2ccccc2NS(=O)(=O)C(F)(F)F)C(=O)O1 (racemic) [Compound 1-428] | 5 (100% herbicidal effect, phytotoxicity) | 5 (100% herbicidal effect, phytotoxicity) | 4 (90%-99% herbicidal effect, phytotoxicity) | 5 (100% herbicidal effect, phytotoxicity) |
| COC(=O)N(c1ccccc1CN1CCC(C)(c2ccccc2F)OC1=O)S(=O)(=O)C(F)(F)F (racemic) [Compound 1-429] | 4 (90%-99% herbicidal effect, phytotoxicity) | 5 (100% herbicidal effect, phytotoxicity) | 4 (90%-99% herbicidal effect, phytotoxicity) | 5 (100% herbicidal effect, phytotoxicity) |
| CC1(c2c(F)cccc2F)CCN(Cc2ccccc2NS(=O)(=O)C(F)(F)F)C(=O)O1 (racemic) [Compound 1-439] | 5 (100% herbicidal effect, phytotoxicity) | 5 (100% herbicidal effect, phytotoxicity) | 4 (90%-99% herbicidal effect, phytotoxicity) | 5 (100% herbicidal effect, phytotoxicity) |
| CCC1(C(C)C)CCN(Cc2ccccc2N(C(=O)OCC(C)(C)C)S(=O)(=O)C(F)(F)F)C(=O)O1 (racemic) [Compound 1-456] | 5 (100% herbicidal effect, phytotoxicity) | 5 (100% herbicidal effect, phytotoxicity) | 4 (90%-99% herbicidal effect, phytotoxicity) | 5 (100% herbicidal effect, phytotoxicity) |
| CN(c1ccccc1CN1CCC(C)(C)OC1=O)S(=O)(=O)C(F)(F)F [Compound 1-54] | 4 (90%-99% herbicidal effect, phytotoxicity) |  | 4 (90%-99% herbicidal effect, phytotoxicity) |  |
| CN(c1ccccc1CN1CCC2(CCCC2)OC1=O)S(=O)(=O)C(F)(F)F [Compound 1-145] | 4 (90%-99% herbicidal effect, phytotoxicity) |  | 4 (90%-99% herbicidal effect, phytotoxicity) |  |
| CC(C)COC(=O)N(c1ccccc1CN1CCC(C2CC2)(C2CC2)OC1=O)S(=O)(=O)C(F)(F)F [Compound 1-154] |  | 4 (90%-99% herbicidal effect, phytotoxicity) |  |  |
| CC(C)COC(=O)N(c1ccccc1CN1CCC(C)(c2ccccc2)OC1=O)S(=O)(=O)C(F)(F)F (centres unmarked) [Compound 1-165] | 4 (90%-99% herbicidal effect, phytotoxicity) | 4 (90%-99% herbicidal effect, phytotoxicity) | 4 (90%-99% herbicidal effect, phytotoxicity) |  |
| CN(c1ccccc1CN1CCC(C)(c2ccccc2)OC1=O)S(=O)(=O)C(F)(F)F (centres unmarked) [Compound 1-167] | 4 (90%-99% herbicidal effect, phytotoxicity) |  |  |  |
| CN(c1ccccc1CN1CCC(c2ccccc2)(c2ccccc2)OC1=O)S(=O)(=O)C(F)(F)F [Compound 1-224] |  | 4 (90%-99% herbicidal effect, phytotoxicity) |  |  |
| CC(C)COC(=O)N(c1ccccc1CN1CCC(c2ccccc2)OC1=O)S(=O)(=O)C(F)(F)F (centres unmarked) [Compound 1-244] |  | 5 (100% herbicidal effect, phytotoxicity) |  | 5 (100% herbicidal effect, phytotoxicity) |
| CN(c1ccccc1CN1CCC(c2ccccc2)OC1=O)S(=O)(=O)C(F)(F)F (centres unmarked) [Compound 1-246] |  | 5 (100% herbicidal effect, phytotoxicity) |  |  |
| CC(C)COC(=O)N(c1ccccc1CN1CCC(c2ccccc2F)OC1=O)S(=O)(=O)C(F)(F)F (centres unmarked) [Compound 1-255] |  | 5 (100% herbicidal effect, phytotoxicity) |  | 5 (100% herbicidal effect, phytotoxicity) |
| CN(c1ccccc1CN1CCC(c2ccccc2F)OC1=O)S(=O)(=O)C(F)(F)F (centres unmarked) [Compound 1-257] | 4 (90%-99% herbicidal effect, phytotoxicity) | 5 (100% herbicidal effect, phytotoxicity) |  | 5 (100% herbicidal effect, phytotoxicity) |
| CCOCN(c1ccccc1CN1CC(C)(C)C(c2ccccc2)OC1=O)S(=O)(=O)C(F)(F)F (centres unmarked) [Compound 1-270] |  | 5 (100% herbicidal effect, phytotoxicity) | 4 (90%-99% herbicidal effect, phytotoxicity) | 5 (100% herbicidal effect, phytotoxicity) |
| CN(c1ccccc1CN1CCC(c2c(Cl)cccc2Cl)OC1=O)S(=O)(=O)C(F)(F)F (centres unmarked) [Compound 1-279] |  | 5 (100% herbicidal effect, phytotoxicity) | 4 (90%-99% herbicidal effect, phytotoxicity) | 5 (100% herbicidal effect, phytotoxicity) |
| CCOCN(c1ccccc1CN1CCC(c2c(Cl)cccc2Cl)OC1=O)S(=O)(=O)C(F)(F)F (centres unmarked) [Compound 1-281] |  | 5 (100% herbicidal effect, phytotoxicity) | 4 (90%-99% herbicidal effect, phytotoxicity) | 5 (100% herbicidal effect, phytotoxicity) |
| Cc1ccccc1C1CCN(Cc2ccccc2N(C)S(=O)(=O)C(F)(F)F)C(=O)O1 (centres unmarked) [Compound 1-290] |  | 5 (100% herbicidal effect, phytotoxicity) | 4 (90%-99% herbicidal effect, phytotoxicity) | 5 (100% herbicidal effect, phytotoxicity) |
| CN(c1ccccc1CN1CCC(c2ccccc2C(F)(F)F)OC1=O)S(=O)(=O)C(F)(F)F (centres unmarked) [Compound 1-301] |  | 5 (100% herbicidal effect, phytotoxicity) |  | 5 (100% herbicidal effect, phytotoxicity) |
| CN(c1ccccc1CN1CCC(c2ccccc2Cl)OC1=O)S(=O)(=O)C(F)(F)F (centres unmarked) [Compound 1-312] |  | 5 (100% herbicidal effect, phytotoxicity) |  | 5 (100% herbicidal effect, phytotoxicity) |
| CCOCN(c1ccccc1CN1CCC(c2ccccc2Cl)OC1=O)S(=O)(=O)C(F)(F)F (centres unmarked) [Compound 1-314] | 4 (90%-99% herbicidal effect, phytotoxicity) | 5 (100% herbicidal effect, phytotoxicity) |  | 5 (100% herbicidal effect, phytotoxicity) |
| CCC1(c2ccccc2)CCN(Cc2ccccc2N(C)S(=O)(=O)C(F)(F)F)C(=O)O1 (centres unmarked) [Compound 1-323] |  | 5 (100% herbicidal effect, phytotoxicity) |  | 5 (100% herbicidal effect, phytotoxicity) |
| O=C1OC(c2c(F)cccc2F)CCN1Cc1ccccc1NS(=O)(=O)C(F)(F)F (centres unmarked) [Compound 1-349] | 5 (100% herbicidal effect, phytotoxicity) | 5 (100% herbicidal effect, phytotoxicity) |  | 5 (100% herbicidal effect, phytotoxicity) |
| CCOCN(c1ccccc1CN1CCC(c2c(C)cccc2C)OC1=O)S(=O)(=O)C(F)(F)F (centres unmarked) [Compound 1-369] |  | 5 (100% herbicidal effect, phytotoxicity) | 4 (90%-99% herbicidal effect, phytotoxicity) | 5 (100% herbicidal effect, phytotoxicity) |
| O=C1OCCCN1Cc1ccccc1NS(=O)(=O)C(F)(F)F [Compound No. 1-1, 3-[2-(trifluoromethanesulfonylamino)benzyl]-[1,3]-oxazinan-2-one] | 4 (90%-99% herbicidal effect, phytotoxicity) | 4 (90%-99% herbicidal effect, phytotoxicity) | 4 (90%-99% herbicidal effect, phytotoxicity) |  |
| CC1CCN(Cc2ccccc2NS(=O)(=O)C(F)(F)F)C(=O)OC1 (centres unmarked) [Compound No. 2-23, 6-methyl-3-[2-(trifluoromethanesulfonylamino)benzyl]-[1,3]-oxazepan-2-one] | 4 (90%-99% herbicidal effect, phytotoxicity) | 4 (90%-99% herbicidal effect, phytotoxicity) | 4 (90%-99% herbicidal effect, phytotoxicity) |  |
